Like-named read-outs stand apart in the source and are kept apart here.
Tests used:
Type in all cases: cell-based, Ixodes ricinus
[1] = test system: T1, Iricα6 homomeric nicotinic acetylcholine receptor; experiment: two-electrode voltage clamp in Xenopus oocytes, agonist dose-response
T1 construct: Iricα6 homomeric receptor expressed in Xenopus laevis oocytes (co-injected with C. elegans RIC-3)

[2] = test system: T1, Iricα6 homomeric nicotinic acetylcholine receptor; experiment: two-electrode voltage clamp in Xenopus oocytes, inhibition of ACh-evoked currents
[3] = test system: T1, Iricα6 homomeric nicotinic acetylcholine receptor; experiment: two-electrode voltage clamp in Xenopus oocytes, agonist-like dose-response

SMILES: CC(=O)OCC[N+](C)(C)C [ACh, acetylcholine]
- EC50 [1]: 27.7 ± 2.44 µM

SMILES: CO[C@H]1CC=C2CCN3CCC4=C(CC(=O)OC4)[C@]23C1 [DHβE, dihydro-β-erythroidine]
- IC50 [2]: 0.00135 µM

SMILES: CNC1(C)C2CCC(C2)C1(C)C (stereo not shown) [MECA, mecamylamine]
- EC50 [3]: 0.0126 µM

SMILES: CCN1C[C@]2(COC(=O)c3ccccc3N3C(=O)C[C@H](C)C3=O)CC[C@H](OC)[C@@]34[C@@H]5C[C@H]6[C@H](OC)[C@@H]5[C@](O)(C[C@@H]6OC)[C@@](O)([C@@H](OC)[C@H]23)[C@@H]14 [MLA, methyllicaconitine]
- IC50 ([2]; read-out: IC50): 0.00856 µM

From paper PMC12721288, “Functional expression and properties of the tick α6 homomeric nicotinic acetylcholine receptor in Xenopus laevis oocytes” (Current Research in Parasitology & Vector-borne Diseases, 2025)
